Assay results taken from ChEMBL document CHEMBL4715921, “Novel Quinazolinyl Compounds as Endoribonuclease Inositol Requiring Enzyme 1 (IRE 1α) Inhibitors for Treating Cancer” (ACS Med Chem Lett, 2021).

Assay: Inhibition of His-tagged IRE1alpha D688N mutant KR domain (G547 to L997 reidues) (unknown origin) expressed in Sf9 insect cells measured after 1 hr by TR-FRET assay
Parameters: species or system Homo sapiens

SMILES: CCc1cc(-c2ccc(NS(=O)(=O)CCC(F)(F)F)c(F)c2)cc2cnc(N[C@H]3CC[C@H](N(C)C)CC3)nc12
- IC50: 0.25 nM

SMILES: CCc1cc(-c2ccc(NS(=O)(=O)Cc3ccccc3)c(F)c2)cc2cnc(N[C@@H]3CNC[C@@H](F)C3)nc12
- IC50: 0.18 nM

SMILES: O=S(=O)(Cc1ccccc1)Nc1ccc(-c2ccc3nc(N[C@H]4CCCNC4)ncc3c2)c(F)c1F
- IC50: 0.57 nM

SMILES: O=S(=O)(Cc1ccccc1)Nc1c(F)cc(-c2ccc3nc(N[C@H]4CCCNC4)ncc3c2)cc1F
- IC50: 0.53 nM

SMILES: O=S(=O)(Cc1ccccc1)Nc1c(F)cc(-c2ccc3nc(N[C@@H]4CNC[C@@H](F)C4)ncc3c2)cc1F
- IC50: 0.51 nM

SMILES: CCc1cc(-c2ccc(NS(=O)(=O)Cc3ccccc3)cc2F)cc2cnc(N[C@@H]3CNC[C@@H](F)C3)nc12
- IC50: 0.46 nM
